According to patent publication US4075341A, “2-Substituted phenyl-5-triazols [5,1-a] isoquinoline compounds” (Gruppo Lepetit S.p.A., priority 1975, dated 1978):

Tested on: carrageenin induced edema
Experiment: carrageenin test in rats (anti-inflammatory activity)
Assay type: in vivo
Settings: Rattus norvegicus, po; 100 mg./kg. p.o.
Text: The anti-inflammatory activity of some inventive compounds was evidenced by means of the carrageenin test in rats.

NC(=O)Nc1nc2n(n1)CCc1ccccc1-2 [Example 54, 2-Ureido-5,6-dihydro-s-triazolo[5,1-a]isoquinoline]
inhibition at 100 mg/kg: ~35%
